{"source": "paper PMC4703992", "about": "“Crystal structures of Mycobacterium tuberculosis HspAT and ArAT reveal structural basis of their distinct substrate specificities” (Scientific Reports, 2016)", "key": {"mHspAT [1]": {"biological_target": "T1, mHspAT (Mycobacterium tuberculosis, UniProt P9WML7)", "T1 construct": "gene hisC; recombinant, vector pYUB1062, over-expressed in M. smegmatis mc2 4517; homodimer", "T1 sequence (P9WML7 whole entry)": "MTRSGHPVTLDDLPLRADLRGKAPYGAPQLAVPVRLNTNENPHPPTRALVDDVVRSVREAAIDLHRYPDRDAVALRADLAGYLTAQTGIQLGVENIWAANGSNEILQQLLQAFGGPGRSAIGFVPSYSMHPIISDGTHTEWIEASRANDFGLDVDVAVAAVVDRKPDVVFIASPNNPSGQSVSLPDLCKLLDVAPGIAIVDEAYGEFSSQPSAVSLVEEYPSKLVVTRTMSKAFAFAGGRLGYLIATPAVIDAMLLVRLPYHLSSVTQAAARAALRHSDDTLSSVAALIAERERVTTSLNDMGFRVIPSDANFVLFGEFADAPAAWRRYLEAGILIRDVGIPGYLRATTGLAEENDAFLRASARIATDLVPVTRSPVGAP", "assay_type": "biochemical", "conditions": "pH 8.4, 37 °C"}, "mHspAT [2]": {"biological_target": "T1, mHspAT", "assay_type": "binding"}, "mArAT [3]": {"biological_target": "T2, mArAT (Mycobacterium tuberculosis, UniProt P9WML5)", "T2 construct": "gene pat", "T2 sequence (P9WML5 whole entry)": "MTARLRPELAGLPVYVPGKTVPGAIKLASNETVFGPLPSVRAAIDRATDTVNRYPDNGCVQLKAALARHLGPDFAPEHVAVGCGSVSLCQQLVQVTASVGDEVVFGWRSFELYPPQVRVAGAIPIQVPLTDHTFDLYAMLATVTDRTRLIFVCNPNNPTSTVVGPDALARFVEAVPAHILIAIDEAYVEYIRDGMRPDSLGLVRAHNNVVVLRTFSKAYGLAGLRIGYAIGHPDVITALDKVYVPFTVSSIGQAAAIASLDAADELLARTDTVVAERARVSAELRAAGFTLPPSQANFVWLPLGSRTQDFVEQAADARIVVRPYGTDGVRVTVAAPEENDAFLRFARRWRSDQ"}, "mArAT [4]": {"biological_target": "T2, mArAT", "remark": "listed apart in the source"}, "N[C@@H](Cc1ccccc1)C(=O)O": {"test_system": "N[C@@H](Cc1ccccc1)C(=O)O", "assay": "purified protein", "conditions": "pH 8.4; 37.0 °C"}, "[5]": {"test_system": "N[C@H](COP(=O)(O)O)Cc1c[nH]cn1", "assay": "purified protein", "conditions": "pH 8.4; 37.0 °C"}}}
{"molecule": "O=S(=O)(O)CCN1CCOCC1", "note": "[MES]", "values": [{"measurement": "Vo'/Vo", "setting": "mHspAT [1]", "result": "concentration dependent inhibition of mHspAT-Hsp activity with MES"}]}
{"molecule": "Cc1ncc(COP(=O)(O)O)c(C=O)c1O", "note": "[PLP]", "values": [{"measurement": "crystal structure, 2.05 Å", "setting": "mHspAT [2]", "result": "binding of the PLP as an internal aldimine via a Schiff’s base with Lys232 Nζ"}, {"measurement": "crystal structure, 1.98 Å", "setting": "mArAT [3]", "result": "it exists as a PLP-Phe external aldimine intermediate complex in one of the monomers"}]}
{"molecule": "Cc1ncc(COP(=O)(O)O)c(CN)c1O", "note": "[PMP]", "values": [{"measurement": "crystal structure, 1.95 Å", "setting": "mArAT [4]", "result": "In the active site of mArAT, indigenously bound PMP and succinate were modelled"}]}
{"molecule": "N[C@@H](Cc1ccccc1)C(=O)O", "note": "[Phe]", "values": [{"measurement": "crystal structure, 1.98 Å", "setting": "mArAT [3]", "result": "Phe is present in the active site of both the monomers of a homodimer"}]}
{"molecule": "O=C(O)CCC(=O)O", "note": "[succinate]", "values": [{"measurement": "crystal structure, 1.95 Å", "setting": "mArAT [4]", "result": "In the dicarboxylate bound form, succinate exists as a non-covalently linked moiety"}]}
{"molecule": "mHspAT (Mycobacterium tuberculosis H37Rv)", "values": [{"measurement": "Km", "setting": "N[C@@H](Cc1ccccc1)C(=O)O", "result": "7.1 ± 0.81", "unit": "mM"}, {"measurement": "kcat/Km", "setting": "N[C@@H](Cc1ccccc1)C(=O)O", "result": "30000 ± 3000", "unit": "M⁻¹ s⁻¹"}, {"measurement": "Km", "setting": "[5]", "result": "0.42 ± 0.02", "unit": "mM"}, {"measurement": "kcat/Km", "setting": "[5]", "result": "1.02e+06 ± 87000", "unit": "M⁻¹ s⁻¹"}]}
